According to ChEMBL document CHEMBL1201862, “PubChem BioAssay data set” (2004):
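Compound exposure: 48 hours, 5 concentrations, 96-well plates. Here, GI50 denotes the concentration required for 50% inhibition of growth.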 Active and inactive are the calls of the source. No stated cut-off is given here; in the data, active = GI50 up to about 1.1 µM and inactive = higher.

How the values were obtained:
Test in all cases: growth of human tumour cells (NCI), 48 h
TK-10 = system: TK-10
OVCAR-3 = system: OVCAR-3
PC-3 = system: PC-3
MOLT-4 = system: MOLT-4
SK-MEL-5 = system: SK-MEL-5
U-251 = system: U-251
DU-145 = system: DU-145
UO-31 = system: UO-31
NCI-H226 = system: NCI-H226
KM12 = system: KM12
SK-MEL-28 = system: SK-MEL-28
NCI-H460 = system: NCI-H460
SW-620 = system: SW-620
MDA-MB-231 = system: MDA-MB-231
CCRF-CEM = system: CCRF-CEM
CAKI-1 = system: CAKI-1
SK-MEL-2 = system: SK-MEL-2
RPMI-8226 = system: RPMI-8226
HL-60 = system: HL-60
SF-268 = system: SF-268

Row | Compound | GI50 (TK-10) | GI50 (OVCAR-3) | GI50 (PC-3) | GI50 (MOLT-4) | GI50 (SK-MEL-5) | GI50 (U-251) | GI50 (DU-145) | GI50 (UO-31) | GI50 (NCI-H226) | GI50 (KM12) | GI50 (SK-MEL-28) | GI50 (NCI-H460) | GI50 (SW-620) | GI50 (MDA-MB-231) | GI50 (CCRF-CEM) | GI50 (CAKI-1) | GI50 (SK-MEL-2) | GI50 (RPMI-8226) | GI50 (HL-60) | GI50 (SF-268)
1 | O=P(O)(O)CN1CCNCCN(CP(=O)(O)O)CC1 | > 49.4 µM (inactive) | > 62.7 µM (inactive) | 52.4 µM (inactive) | 12.5 µM (inactive) | 14 µM (inactive) | > 100 µM (inactive) | > 100 µM (inactive) | > 100 µM (inactive) | > 38.5 µM (inactive) | 28.6 µM (inactive) | > 100 µM (inactive) | 11.3 µM (inactive) | 19.3 µM (inactive) | 36 µM (inactive) | 23.6 µM (inactive) | > 90.6 µM (inactive) | 46 µM (inactive) | 20.4 µM (inactive) | 4.21 µM (inactive) | 75.2 µM (inactive)
2 | CC1OC(OC2C(OC(=O)[C@]34CCC(C)(C)C[C@H]3C3=CC[C@@H]5[C@@]6(C)CC[C@H](OC7OC(C(=O)O)C(O)C(O)C7O)C(C)(C)[C@@H]6CC[C@@]5(C)[C@]3(C)C[C@H]4O)OCC(O)C2O)C(O)C(OC2OCC(O)(CO)C2O)C1OC1OCC(O)C(O)C1O (stereo partly drawn) | – | 14 µM (inactive) | 8.55 µM (inactive) | 13.6 µM (inactive) | 14.8 µM (inactive) | 9.64 µM (inactive) | 12.9 µM (inactive) | 2.92 µM (inactive) | 10.9 µM (inactive) | 4.36 µM (inactive) | 4.49 µM (inactive) | 18.2 µM (inactive) | 10.9 µM (inactive) | 3.43 µM (inactive) | 17 µM (inactive) | 6.62 µM (inactive) | 6.7 µM (inactive) | 7.23 µM (inactive) | 3.19 µM (inactive) | 17.9 µM (inactive)
3 | CC(C)C(=O)C(C)(C)CCc1ccccn1 | > 100 µM (inactive) | > 100 µM (inactive) | > 100 µM (inactive) | – | > 100 µM (inactive) | > 100 µM (inactive) | > 100 µM (inactive) | > 100 µM (inactive) | > 100 µM (inactive) | > 100 µM (inactive) | > 100 µM (inactive) | > 100 µM (inactive) | > 100 µM (inactive) | > 100 µM (inactive) | > 100 µM (inactive) | > 100 µM (inactive) | > 100 µM (inactive) | > 100 µM (inactive) | > 100 µM (inactive) | > 100 µM (inactive)
4 | COc1cc(OC)cc(C(=O)NC2=C(Cl)C(=O)c3ccccc3C2=O)c1 | 2.81 µM (inactive) | 1.88 µM (inactive) | 1.23 µM (inactive) | 1.67 µM (inactive) | 2.04 µM (inactive) | 1.94 µM (inactive) | 4.58 µM (inactive) | 3.15 µM (inactive) | 3.3 µM (inactive) | 1.62 µM (inactive) | 2.96 µM (inactive) | 2.34 µM (inactive) | 1.01 µM (active) | 4.08 µM (inactive) | 0.355 µM (active) | 5.4 µM (inactive) | 1.65 µM (inactive) | 0.706 µM (active) | 0.189 µM (active) | 6.12 µM (inactive)
5 | c1cc(-c2cnc(-c3ccc4c(c3)CCCO4)o2)ccn1 | 12.7 µM (inactive) | 16.4 µM (inactive) | 11.8 µM (inactive) | 5.62 µM (inactive) | 12.6 µM (inactive) | 16.7 µM (inactive) | 11.3 µM (inactive) | 12.3 µM (inactive) | 15.3 µM (inactive) | – | 18.1 µM (inactive) | – | – | 16.2 µM (inactive) | 5.98 µM (inactive) | 15.6 µM (inactive) | 11.9 µM (inactive) | 6.24 µM (inactive) | 4.33 µM (inactive) | 15.6 µM (inactive)
6 | COc1cc(C2SCC(=O)N2c2ccc(-n3c(-c4ccccc4)nc4ccccc4c3=O)cc2)ccc1O (stereo not drawn) | > 100 µM (inactive) | > 100 µM (inactive) | > 100 µM (inactive) | 24.2 µM (inactive) | 49.3 µM (inactive) | 84.9 µM (inactive) | > 100 µM (inactive) | 11.8 µM (inactive) | 5.01 µM (inactive) | 34.4 µM (inactive) | > 100 µM (inactive) | 69.5 µM (inactive) | > 100 µM (inactive) | 97.9 µM (inactive) | 27.2 µM (inactive) | > 100 µM (inactive) | > 100 µM (inactive) | 76.4 µM (inactive) | > 100 µM (inactive) | 32.4 µM (inactive)
7 | CN1CCN(CCn2c3c4ccccc4ccc3c3oc(=O)c4ccccc4c32)CC1 | 10.5 µM (inactive) | 10.6 µM (inactive) | 2.03 µM (inactive) | 1.5 µM (inactive) | 1.78 µM (inactive) | 2.49 µM (inactive) | > 10 µM (inactive) | 2.19 µM (inactive) | 16.6 µM (inactive) | 2.42 µM (inactive) | 4.94 µM (inactive) | 1.99 µM (inactive) | 1.86 µM (inactive) | 1.8 µM (inactive) | 1.56 µM (inactive) | 4.97 µM (inactive) | 13.5 µM (inactive) | 2.61 µM (inactive) | 2.15 µM (inactive) | 6 µM (inactive)
8 | COc1cc2c(cc1OC)C(=O)N(c1ccc(OCCN3CCCC3)cc1)C2=O | > 100 µM (inactive) | > 100 µM (inactive) | > 100 µM (inactive) | > 100 µM (inactive) | > 100 µM (inactive) | > 100 µM (inactive) | > 100 µM (inactive) | – | > 100 µM (inactive) | > 100 µM (inactive) | > 100 µM (inactive) | > 100 µM (inactive) | > 100 µM (inactive) | > 100 µM (inactive) | > 100 µM (inactive) | > 100 µM (inactive) | > 100 µM (inactive) | > 100 µM (inactive) | > 100 µM (inactive) | > 100 µM (inactive)
9 | Nc1nc(N)c2c(-c3ccccc3)ccnc2n1 | > 100 µM (inactive) | > 100 µM (inactive) | > 100 µM (inactive) | > 10 µM (inactive) | > 100 µM (inactive) | > 100 µM (inactive) | > 100 µM (inactive) | > 100 µM (inactive) | 40.4 µM (inactive) | – | 40.5 µM (inactive) | > 100 µM (inactive) | 39.7 µM (inactive) | > 100 µM (inactive) | > 100 µM (inactive) | > 100 µM (inactive) | > 100 µM (inactive) | > 100 µM (inactive) | > 100 µM (inactive) | > 100 µM (inactive)
10 | O=C(O)CC(C(=O)O)c1ccccc1[N+](=O)[O-] (stereo not drawn) | > 100 µM (inactive) | > 100 µM (inactive) | > 100 µM (inactive) | – | > 100 µM (inactive) | > 100 µM (inactive) | > 100 µM (inactive) | 2.62 µM (inactive) | > 100 µM (inactive) | > 100 µM (inactive) | > 100 µM (inactive) | > 100 µM (inactive) | > 100 µM (inactive) | > 100 µM (inactive) | > 100 µM (inactive) | > 100 µM (inactive) | > 100 µM (inactive) | > 100 µM (inactive) | > 100 µM (inactive) | > 100 µM (inactive)
11 | O=C(NO)NCCCl | > 100 µM (inactive) | > 100 µM (inactive) | > 100 µM (inactive) | > 100 µM (inactive) | > 100 µM (inactive) | > 100 µM (inactive) | > 100 µM (inactive) | > 100 µM (inactive) | > 100 µM (inactive) | > 100 µM (inactive) | – | > 100 µM (inactive) | > 100 µM (inactive) | > 100 µM (inactive) | > 100 µM (inactive) | > 100 µM (inactive) | > 100 µM (inactive) | > 100 µM (inactive) | > 100 µM (inactive) | > 100 µM (inactive)
12 | CCCN1CC=C(c2cc(C(=O)OCC)[nH]c2-c2cc(C)no2)C1=O | – | > 100 µM (inactive) | > 100 µM (inactive) | 53.6 µM (inactive) | > 100 µM (inactive) | > 100 µM (inactive) | > 100 µM (inactive) | 89.7 µM (inactive) | 73.5 µM (inactive) | > 100 µM (inactive) | > 100 µM (inactive) | > 100 µM (inactive) | > 100 µM (inactive) | > 100 µM (inactive) | 89.3 µM (inactive) | > 100 µM (inactive) | > 100 µM (inactive) | 75 µM (inactive) | > 100 µM (inactive) | > 100 µM (inactive)
13 | c1ccc2c(c1)nc1n2C2CCC(C2)N1 (stereo not drawn) | > 10 µM (inactive) | > 10 µM (inactive) | > 10 µM (inactive) | > 10 µM (inactive) | > 10 µM (inactive) | > 10 µM (inactive) | > 10 µM (inactive) | > 10 µM (inactive) | > 10 µM (inactive) | – | > 10 µM (inactive) | > 10 µM (inactive) | > 10 µM (inactive) | > 10 µM (inactive) | > 10 µM (inactive) | > 10 µM (inactive) | > 10 µM (inactive) | > 10 µM (inactive) | > 10 µM (inactive) | > 10 µM (inactive)
14 | Nc1ccc2[nH]cc(CCC(=O)O)c2c1 | > 100 µM (inactive) | > 100 µM (inactive) | > 100 µM (inactive) | > 100 µM (inactive) | > 100 µM (inactive) | > 100 µM (inactive) | > 100 µM (inactive) | > 100 µM (inactive) | > 100 µM (inactive) | > 100 µM (inactive) | > 100 µM (inactive) | – | 88.1 µM (inactive) | > 100 µM (inactive) | 9.48 µM (inactive) | > 100 µM (inactive) | > 100 µM (inactive) | > 100 µM (inactive) | 27.3 µM (inactive) | > 100 µM (inactive)
